Assay results: patent publication EP1290011B1 (Oncopeptides AB, priority 2000, dated 2001)

Experiments:
[1] = system: RPMI 8226S; test: FMCA comparing J1 and AcJ1; type: cell-based; settings: RPMI 8226S cell line
Protocol: (§1) The fluorometric microculture cytotoxicity assay (FMCA) (Larsson, R., et al- 1992: Int J Cancer, 50, 177-185) was used to evaluate the compounds. Briefly, 96-well microtiter plates (NUNC, Roskilde, Denmark) are prepared with 20 µl drug solution at ten times the desired concentration and stored for up to two months at -70°C. In general the substances are first dissolved in absolute or acidic ethanol to concentrations of 4.0 to 8.2 mM and further diluted with sterile water or sterile phosphate buffered saline (PBS, Sigma chemicals). All dilutions with water are made directly before the experiments to minimise the influence of mustard hydrolysis. […] At day zero of the experiment 180 µl of cell suspension of adequate concentration is added to the wells of the thawed plate, six wells serve as controls (cell suspension only) and six wells as blanks (cell medium only). After 72 hours incubation the cells are washed once with PBS, and 100 µl of fluorescein diacetate (10 µg/ml) in a physiological buffer is added. After another 45 min the generated fluorescence (ex 485 nm; em 528 nm) is measured in a 96-well scanning fluorometer (Fluoroscan II, Labsystems Oy, Helsinki, Finland). […]

[2] = system: U-937; test: FMCA comparing J1 and AcJ1; type: cell-based; settings: U-937 cell line
Protocol: as §1

[3] = system: fresh human tumour specimens; test: FMCA cytotoxic activity in 27 fresh human tumour specimens (Figure 2); type: cell-based; settings: 27 human tumour samples, 14 hematological and 13 solid, comparative statement
[4] = system: CEM/S; test: cells; type: cell-based, human; settings: CEM/S; 72 hours incubation; read-out: IC50
[5] = system: CEM/R; test: cells; type: cell-based, human; settings: CEM/R; 72 hours incubation; read-out: IC50
[6] = system: ACHN; test: cells; type: cell-based, human; settings: ACHN, primary resistant renal carcinoma; 72 hours incubation; read-out: IC50
[7] = system: H69; test: cells; type: cell-based, human; settings: H69, small cell lung cancer; 72 hours incubation; read-out: IC50
[8] = system: H69AR; test: cells; type: cell-based, human; settings: H69AR, doxorubicin resistance; 72 hours incubation; read-out: IC50
[9] = system: 8226S; test: cells; type: cell-based, human; settings: 8226S, myeloma; 72 hours incubation; read-out: IC50
[10] = system: 8226Dox40; test: cells; type: cell-based, human; settings: 8226Dox40, doxorubicin resistance; 72 hours incubation; read-out: IC50
[11] = system: 8226LR5; test: cells; type: cell-based, human; settings: 8226LR5, melphalan resistance; 72 hours incubation; read-out: IC50
[12] = system: U937gtb; test: cells; type: cell-based, human; settings: U937gtb, lymphoma; 72 hours incubation; read-out: IC50
[13] = system: U937vcr; test: cells; type: cell-based, human; settings: U937vcr, vincristine resistance; 72 hours incubation; read-out: IC50
[14] = system: panel of ten human tumour cell lines; test: cells; type: cell-based; settings: mean over the ten cell lines; read-out: MEAN IC50
[15] = system: NCI-H23; test: cells; type: cell-based; settings: NCI-H23, non-small cell lung cancer; read-out: IC50
[16] = system: U-1752; test: cells; type: cell-based; settings: U-1752, non-small cell lung cancer; read-out: IC50
[17] = system: NCI-H611; test: cells; type: cell-based; settings: NCI-H611, non-small cell lung cancer; read-out: IC50
[18] = system: NCI-H157; test: cells; type: cell-based; settings: NCI-H157, non-small cell lung cancer; read-out: IC50
[19] = system: U-1810; test: cells; type: cell-based; settings: U-1810, non-small cell lung cancer; read-out: IC50
[20] = system: NCI-H125; test: cells; type: cell-based; settings: NCI-H125, non-small cell lung cancer; read-out: IC50
[21] = system: U-1568; test: cells; type: cell-based; settings: U-1568, non-small cell lung cancer; read-out: IC50
[22] = system: U1906L; test: cells; type: cell-based; settings: U1906L, small cell lung cancer; read-out: IC50
[23] = system: U1285; test: cells; type: cell-based; settings: U1285, small cell lung cancer; read-out: IC50
[24] = system: U-1906E; test: cells; type: cell-based; settings: U-1906E, small cell lung cancer; read-out: IC50
[25] = system: U1690; test: cells; type: cell-based; settings: U1690, small cell lung cancer; read-out: IC50
[26] = system: Ovarian carcinoma; test: Cytotoxic activity in different tumour models; type: cell-based, human; settings: Number 8
[27] = system: Breast cancer; test: Cytotoxic activity in different tumour models; type: cell-based, human; settings: Number 4
[28] = system: NSC Lung cancer; test: Cytotoxic activity in different tumour models; type: cell-based, human; settings: Number 8
[29] = system: Corpus cancer; test: Cytotoxic activity in different tumour models; type: cell-based, human; settings: Number 4
[30] = system: Adeno-carcinoma; test: Cytotoxic activity in different tumour models; type: cell-based, human; settings: Number 5
[31] = system: PHTC samples from 9 patients with hematological and 18 patients with solid tumours; test: Circumvention of melphalan resistance: FMCA classification of PHTC samples as LDR, IDR, EDR; type: cell-based, human; settings: tested at 4 µM; for Number of samples EDR / Number of samples (%) EDR: Extreme drug resistance; for Number of samples (%) EDR / Number of samples (%) IDR / Number of samples (%) LDR: percent of samples; for Number of samples IDR / Number of samples (%) IDR: Intermediate drug resistance; for Number of samples LDR / Number of samples (%) LDR: Low drug resistance
[32] = system: hematological fresh human tumour specimens (PHTC); settings: 0.66 µM; n=42; 4320 min
[33] = system: solid tumour fresh human tumour specimens (PHTC); settings: 0.66 µM; n=22; 4320 min
[34] = system: Solid tumours (PHTC); test: FMCA in PHTC cultures, Table 4, solid; settings: 4 µM; n=12-20; 4320 min
[35] = system: primary cultures of human tumor cells from patients (PHTC), Total; test: FMCA in PHTC cultures, Table 4, total; settings: 4 µM; n=19-31; 4320 min
[36] = system: Hematological tumours (PHTC); test: FMCA in PHTC cultures, Table 4, hematological; settings: 4 µM; n=7-11; 4320 min
[37] = system: Prostate cancer; test: Cytotoxic activity in different tumour models; type: cell-based, human; settings: Number 1

CCOC(=O)[C@H](Cc1ccc(F)cc1)NC(=O)[C@H](Cc1ccc(N(CCCl)CCCl)cc1)NC(C)=O [AcJ1, N-Acetyl-L-melphalanyl-L-p-fluorophenylalanine ethyl ester]
IC50 [1]: 2900 nM | IC50 [2]: 610 nM

CCOC(=O)[C@H](Cc1ccc(F)cc1)NC(=O)[C@@H](N)Cc1ccc(N(CCCl)CCCl)cc1.Cl [Example J1, L-Melphalanyl-L-p-fluorophenylalanine ethyl ester hydrochloride]
IC50s (comparison) [3]: in all cases was more active than P2 | IC50 [4]: 30 nM | IC50 [5]: 10 nM | IC50 [6]: 400 nM | IC50 [7]: 40 nM | IC50 [8]: < 9000 nM | IC50 [9]: 810 nM | IC50 [10]: 1760 nM | IC50 [11]: 2470 nM | IC50 [12]: 70 nM | IC50 [13]: 110 nM | IC50 [14]: 660 nM | IC50 [15]: 7600 nM | IC50 [16]: 1300 nM | IC50 [17]: 3170 nM | IC50 [18]: 3900 nM | IC50 [19]: 10 nM | IC50 [20]: 9730 nM | IC50 [21]: 1640 nM | IC50 [22]: 220 nM | IC50 [23]: 40 nM | IC50 [24]: 1170 nM | IC50 [25]: 1390 nM | Median response at 4.0 µM >50% reduction in tumour cell survival [26]: Yes | Median response at 4.0 µM >50% reduction in tumour cell survival [27]: Yes | Median response at 4.0 µM >50% reduction in tumour cell survival [28]: Yes | Median response at 4.0 µM >50% reduction in tumour cell survival [29]: No | Median response at 4.0 µM >50% reduction in tumour cell survival [30]: Yes | Number of samples EDR [31]: 1 | Number of samples (%) EDR [31]: 6% | Number of samples IDR [31]: 3 | Number of samples (%) IDR [31]: 18% | Number of samples LDR [31]: 13 | Number of samples (%) LDR [31]: 76% | Tumour cell survival index % Hematological [32]: 13.7% | Tumour cell survival index % Solid [33]: 46.9% | Tumour cell survival index (%) Solid tumours [34]: 56.5% | Tumour cell survival index (%) Total [35]: 40.9% | Tumour cell survival index (%) Hematological tumours [36]: 6.6%

CCOC(=O)[C@H](Cc1ccc(F)cc1)NC(=O)[C@H](Cc1ccc(N(CCCl)CCCl)cc1)NC(=O)[C@@H]1CCCN1.Cl [Example J3, L-Prolinyl-L-melphalanyl-L-p-fluorophenylalanine ethyl ester hydrochloride]
IC50 [4]: 60 nM | IC50 [5]: 20 nM | IC50 [6]: 1720 nM | IC50 [7]: 200 nM | IC50 [8]: 1360 nM | IC50 [9]: 1510 nM | IC50 [10]: 5660 nM | IC50 [11]: 3520 nM | IC50 [12]: 230 nM | IC50 [13]: 420 nM | IC50 [14]: 1470 nM | Median response at 4.0 µM >50% reduction in tumour cell survival [26]: Yes | Median response at 4.0 µM >50% reduction in tumour cell survival [27]: Yes | Median response at 4.0 µM >50% reduction in tumour cell survival [28]: Yes | Median response at 4.0 µM >50% reduction in tumour cell survival [37]: Yes | Median response at 4.0 µM >50% reduction in tumour cell survival [29]: Yes | Median response at 4.0 µM >50% reduction in tumour cell survival [30]: Yes | Number of samples EDR [31]: 0 (0%) | Number of samples (%) EDR [31]: 0 (0%) | Number of samples IDR [31]: 4 | Number of samples (%) IDR [31]: 15% | Number of samples LDR [31]: 23 | Number of samples (%) LDR [31]: 85% | Tumour cell survival index (%) Solid tumours [34]: 36.3% | Tumour cell survival index (%) Total [35]: 25.9% | Tumour cell survival index (%) Hematological tumours [36]: 7%

CC(C)OC(=O)[C@H](Cc1ccc(F)cc1)NC(=O)[C@@H](N)Cc1ccc(N(CCCl)CCCl)cc1.Cl [JV28, L-Melphalanyl-L-p-fluorophenylalanine isopropyl ester hydrochloride]
IC50 [4]: 60 nM | IC50 [5]: 40 nM | IC50 [6]: 50 nM | IC50 [7]: 50 nM | IC50 [8]: 370 nM | IC50 [9]: 510 nM | IC50 [10]: 890 nM | IC50 [11]: 1880 nM | IC50 [12]: 100 nM | IC50 [13]: 150 nM | IC50 [14]: 410 nM | Median response at 4.0 µM >50% reduction in tumour cell survival [26]: Yes | Median response at 4.0 µM >50% reduction in tumour cell survival [27]: Yes | Median response at 4.0 µM >50% reduction in tumour cell survival [28]: Yes | Median response at 4.0 µM >50% reduction in tumour cell survival [37]: Yes | Median response at 4.0 µM >50% reduction in tumour cell survival [30]: Yes | Number of samples EDR [31]: 1 | Number of samples (%) EDR [31]: 6% | Number of samples IDR [31]: 2 | Number of samples (%) IDR [31]: 12% | Number of samples LDR [31]: 14 | Number of samples (%) LDR [31]: 82% | Tumour cell survival index (%) Solid tumours [34]: 44.2% | Tumour cell survival index (%) Total [35]: 30.4% | Tumour cell survival index (%) Hematological tumours [36]: 6.7%
